Data taken from patent US9850283B2, “Macrocyclic inhibitors of the PD-1/PD-L1 and CD80(B7-1)/PD-L1 protein/protein interactions” (BRISTOL-MYERS SQUIBB COMPANY, priority 2013, dated 2017).
Starred links: 1 amine or outer side, 2 acyl side, 3 side chain; linkers in the order of their positions; H or OH if unused. Positions of bridges follow the written chain, without caps; N, C: chain ends. Non-standard residues stand in square brackets, D forms with d. Residues, ends and D or L forms follow the SMILES beside them. Phe(3,4,5-F3) = N[C@@H](Cc1cc(F)c(F)c(F)c1)C(=O)O; X12 = O=C([C@H](Cc1cc(Cl)c(F)c(Cl)c1)N[*:1])[*:2]; X14 = O=C([C@H](Cc1cc(F)c(F)c(Cl)c1)N[*:1])[*:2]; Phe(3,5-Cl2) = N[C@@H](Cc1cc(Cl)cc(Cl)c1)C(=O)O; X15 = O=C([C@H](Cc1ccc(Cl)c(F)c1)N[*:1])[*:2]; Pro(4R-NH2) = N[C@H]1CN[C@H](C(=O)O)C1; X11 = CC1(C)CC[C@H](C(=O)[*:2])N1[*:1]; d(cisHyp) = O=C(O)[C@H]1C[C@@H](O)CN1; NMeF = CN[C@@H](Cc1ccccc1)C(=O)O; NMeE = CN[C@@H](CCC(=O)O)C(=O)O; NMeNle = CCCC[C@H](NC)C(=O)O; Orn = NCCC[C@H](N)C(=O)O; Sar = CNCC(=O)O

Tests used:
Human PD-L1/PD-1 = target: T1, Human PD-L1/PD-1 (Homo sapiens, UniProt Q9NZQ7); assay: HTRF PD-1-Ig/PD-L1-His binding assay (human PD-L1); details: cluster symbol; read-out: HTRF IC50 cluster
T1 construct: made in house; host or cells: HEK293T
Outline: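 HTRF read-out: Eu cryptate anti-Ig mAb 1 nM final, APC anti-His mAb 20 nM final, added over the binding reaction. Proteins were PD-1-Ig and PD-L1-His ectodomain fusions. Buffer was dPBS, 0.1% BSA, 0.05% Tween-20.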

[1] = target: T2, LK35.2-hPD-L1 cells / PE-labeled PD-1-Ig (Homo sapiens, UniProt Q9NZQ7); assay: LK35.2-hPD-L1 cell binding high-content screening assay; format: cell-based; details: cluster symbol; cell line of CBA not given (LK35.2-hPD-L1 or 293T-hPD-L1); read-out: CBA IC50 cluster
T2 construct: expressed in transfected cells; host or cells: LK35.2 mouse B cell line
Outline: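 Compound effect on PD-1/PD-L1 binding is measured by imaging cell-associated phycoerythrin signal. Human PD-1-Ig (PE on Ig tag, 1 nM final) is applied with compound to a murine B cell line overexpressing human PD-L1 for 1 h at 37 °C in serum-containing RPMI.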

T2 sequence (Q9NZQ7 19-290): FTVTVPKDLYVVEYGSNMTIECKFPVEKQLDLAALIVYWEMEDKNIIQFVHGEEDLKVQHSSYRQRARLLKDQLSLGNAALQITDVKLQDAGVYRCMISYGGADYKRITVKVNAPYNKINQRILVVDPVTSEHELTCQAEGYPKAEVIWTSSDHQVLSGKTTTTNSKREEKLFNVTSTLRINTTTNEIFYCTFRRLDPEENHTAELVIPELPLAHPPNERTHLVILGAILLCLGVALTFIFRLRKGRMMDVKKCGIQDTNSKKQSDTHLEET
T1 sequence (Q9NZQ7 with tags, fused parts or gaps): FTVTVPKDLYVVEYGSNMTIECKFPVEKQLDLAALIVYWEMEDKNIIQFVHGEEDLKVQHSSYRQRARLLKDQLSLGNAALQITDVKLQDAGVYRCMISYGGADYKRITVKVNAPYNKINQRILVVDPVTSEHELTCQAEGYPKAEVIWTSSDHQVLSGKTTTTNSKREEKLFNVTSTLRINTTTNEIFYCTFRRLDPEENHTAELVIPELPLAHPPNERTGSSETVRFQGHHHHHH

Structure (SMILES) | IC50 (Human PD-L1/PD-1) | IC50 [1]
CCCC[C@H]1C(=O)N(C)CC(=O)N[C@@H](CC(=O)O)C(=O)N[C@@H](C(C)C)C(=O)N(C)[C@@H](Cc2ccccc2)C(=O)N2C[C@H](O)C[C@H]2C(=O)N2CCC[C@@H]2C(=O)N[C@@H](Cc2c[nH]c3ccccc23)C(=O)N[C@@H](Cc2ccc(O)cc2)C(=O)N[C@@H](CC(C)C)C(=O)N[C@H](C(=O)NCC(N)=O)CSCC(=O)N[C@@H](Cc2ccccc2)C(=O)N(C)[C@@H](Cc2ccccc2)C(=O)N1C [Example 3177] (HELM PEPTIDE1{[O=C(C[*:3])[*:2]].F.[meF].[CCCC[C@@H](C(=O)[*:2])N(C)[*:1]].[Sar].D.V.[meF].[Hyp].[dP].W.Y.L.C.G.[am]}$PEPTIDE1,PEPTIDE1,1:R3-14:R3$$$V2.0) | > 30.5 nM | > 74.3 nM
CCCC[C@H]1C(=O)N(C)CC(=O)N[C@@H](CC(=O)O)C(=O)N[C@@H](C(C)C)C(=O)N(C)[C@@H](Cc2ccccc2)C(=O)N2C[C@H](N)C[C@H]2C(=O)N2CCC[C@@H]2C(=O)N[C@@H](Cc2c[nH]c3ccccc23)C(=O)N[C@@H](Cc2ccc(O)cc2)C(=O)N[C@@H](CC(C)C)C(=O)N[C@H](C(=O)NCC(N)=O)CSCC(=O)N[C@@H](Cc2ccccc2)C(=O)N(C)[C@@H](Cc2ccccc2)C(=O)N1C [Example 3178] ({CH2CO}-F[NMeF][NMeNle][Sar]DV[NMeF][Pro(4R-NH2)][dP]WYLCG-NH2; thioether N-13) | 6.76 to 30.3 nM | 4.78 to 72.9 nM
CCCC[C@H]1C(=O)N(C)CC(=O)N[C@@H](CC(=O)O)C(=O)N[C@@H](C(C)C)C(=O)N(C)[C@@H](Cc2ccccc2)C(=O)N[C@@H](Cc2ccc(O)cc2)C(=O)N(C)CC(=O)N[C@@H](Cc2c[nH]c3ccccc23)C(=O)N[C@@H](Cc2ccc(O)cc2)C(=O)N[C@@H](CC(C)C)C(=O)N[C@H](C(=O)NCC(N)=O)CSCC(=O)N[C@@H](Cc2cc(Cl)cc(Cl)c2)C(=O)N(C)[C@@H](Cc2ccccc2)C(=O)N1C [Example 3179] ({CH2CO}-[Phe(3,5-Cl2)][NMeF][NMeNle][Sar]DV[NMeF]Y[Sar]WYLCG-NH2; thioether N-13) | > 30.5 nM | 4.78 to 72.9 nM
CCCC[C@H]1C(=O)N(C)CC(=O)N[C@@H](CC(=O)O)C(=O)N[C@@H](C(C)C)C(=O)N(C)[C@@H](Cc2ccccc2)C(=O)N[C@@H](Cc2ccc(O)cc2)C(=O)N(C)CC(=O)N[C@@H](Cc2c[nH]c3ccccc23)C(=O)N[C@@H](Cc2ccc(O)cc2)C(=O)N[C@@H](CC(C)C)C(=O)N[C@H](C(=O)NCC(N)=O)CSCC(=O)N[C@@H](Cc2ccc(Cl)c(F)c2)C(=O)N(C)[C@@H](Cc2ccccc2)C(=O)N1C [Example 3180] ({CH2CO}-[X15][NMeF][NMeNle][Sar]DV[NMeF]Y[Sar]WYLCG-NH2; thioether N-13) | 6.76 to 30.3 nM | 0.158 to 4.71 nM
CCCC[C@H]1C(=O)N(C)CC(=O)N[C@@H](CC(N)=O)C(=O)N[C@@H](C(C)C)C(=O)N(C)[C@@H](Cc2ccccc2)C(=O)N[C@@H](Cc2ccc(O)cc2)C(=O)N(C)CC(=O)N[C@@H](Cc2c[nH]c3ccccc23)C(=O)N[C@@H](Cc2ccc(O)cc2)C(=O)N[C@@H](CCCN)C(=O)N[C@H](C(=O)NCC(N)=O)CSCC(=O)N[C@@H](Cc2cc(F)c(F)c(F)c2)C(=O)N(C)[C@@H](Cc2ccccc2)C(=O)N1C [Example 3181] ({CH2CO}-[Phe(3,4,5-F3)][NMeF][NMeNle][Sar]NV[NMeF]Y[Sar]WY[Orn]CG-NH2; thioether N-13) | 0.385 to 6.74 nM | 0.158 to 4.71 nM
CCCC[C@H]1C(=O)N2C[C@H](O)C[C@@H]2C(=O)N[C@@H](CC(=O)O)C(=O)N[C@@H](C(C)C)C(=O)N(C)[C@@H](Cc2ccccc2)C(=O)N[C@@H](Cc2ccc(O)cc2)C(=O)N(C)[C@@H](CCC(=O)O)C(=O)N[C@@H](Cc2c[nH]c3ccccc23)C(=O)N[C@@H](Cc2ccc(O)cc2)C(=O)N[C@@H](CC(C)C)C(=O)N[C@H](C(=O)NCC(N)=O)CSCC(=O)N[C@@H](Cc2cc(F)c(F)c(F)c2)C(=O)N(C)[C@@H](Cc2ccccc2)C(=O)N1C [Example 3182] ({CH2CO}-[Phe(3,4,5-F3)][NMeF][NMeNle][d(cisHyp)]DV[NMeF]Y[NMeE]WYLCG-NH2; thioether N-13) | 0.385 to 6.74 nM | 0.158 to 4.71 nM
CCCC[C@H]1C(=O)N2C[C@H](O)C[C@@H]2C(=O)N[C@@H](CC(=O)O)C(=O)N[C@@H](C(C)C)C(=O)N(C)[C@@H](Cc2ccccc2)C(=O)N[C@@H](Cc2ccc(O)cc2)C(=O)N2CCC[C@@H]2C(=O)N[C@@H](Cc2c[nH]c3ccccc23)C(=O)N[C@@H](Cc2ccc(O)cc2)C(=O)N[C@@H](CC(C)C)C(=O)N[C@H](C(=O)NCC(N)=O)CSCC(=O)N[C@@H](Cc2cc(F)c(F)c(F)c2)C(=O)N(C)[C@@H](Cc2ccccc2)C(=O)N1C [Example 3183] ({CH2CO}-[Phe(3,4,5-F3)][NMeF][NMeNle][d(cisHyp)]DV[NMeF]Y[dP]WYLCG-NH2; thioether N-13) | 0.385 to 6.74 nM | 0.158 to 4.71 nM

Continued, values first:

IC50 (Human PD-L1/PD-1) | IC50 [1] | Structure (SMILES)
> 30.5 nM | > 74.3 nM | CCCC[C@H]1C(=O)N(C)CC(=O)N[C@@H](CC(=O)O)C(=O)N[C@@H](C(C)C)C(=O)N(C)[C@@H](Cc2ccccc2)C(=O)N[C@@H](Cc2ccc(O)cc2)C(=O)N2[C@H](CCC2(C)C)C(=O)N[C@@H](Cc2c[nH]c3ccccc23)C(=O)N[C@@H](Cc2ccc(O)cc2)C(=O)N[C@@H](CC(C)C)C(=O)N[C@H](C(=O)NCC(N)=O)CSCC(=O)N[C@@H](Cc2ccccc2)C(=O)N(C)[C@@H](Cc2ccccc2)C(=O)N1C [Example 3184] ({CH2CO}-F[NMeF][NMeNle][Sar]DV[NMeF]Y[X11]WYLCG-NH2; thioether N-13)
6.76 to 30.3 nM | 4.78 to 72.9 nM | CCCC[C@H]1C(=O)N(C)CC(=O)N[C@@H](CC(=O)O)C(=O)N[C@@H](C(C)C)C(=O)N(C)[C@@H](Cc2ccccc2)C(=O)N[C@@H](Cc2ccc(O)cc2)C(=O)N(C)CC(=O)N[C@@H](Cc2c[nH]c3ccccc23)C(=O)N[C@@H](Cc2ccc(O)cc2)C(=O)N[C@@H](CC(C)C)C(=O)N[C@H](C(=O)NCC(N)=O)CSCC(=O)N[C@@H](Cc2cc(Cl)c(F)c(Cl)c2)C(=O)N(C)[C@@H](Cc2ccccc2)C(=O)N1C [Example 3185] ({CH2CO}-[X12][NMeF][NMeNle][Sar]DV[NMeF]Y[Sar]WYLCG-NH2; thioether N-13)
6.76 to 30.3 nM | 0.158 to 4.71 nM | CCCC[C@H]1C(=O)N(C)CC(=O)N[C@@H](CC(=O)O)C(=O)N[C@@H](C(C)C)C(=O)N(C)[C@@H](Cc2ccccc2)C(=O)N[C@@H](Cc2ccc(O)cc2)C(=O)N(C)CC(=O)N[C@@H](Cc2c[nH]c3ccccc23)C(=O)N[C@@H](Cc2ccc(O)cc2)C(=O)N[C@@H](CC(C)C)C(=O)N[C@H](C(=O)NCC(N)=O)CSCC(=O)N[C@@H](Cc2cc(F)c(F)c(Cl)c2)C(=O)N(C)[C@@H](Cc2ccccc2)C(=O)N1C [Example 3186] ({CH2CO}-[X14][NMeF][NMeNle][Sar]DV[NMeF]Y[Sar]WYLCG-NH2; thioether N-13)
6.76 to 30.3 nM | 0.158 to 4.71 nM | CCCC[C@H]1C(=O)N2CCC[C@@H]2C(=O)N[C@@H](CC(=O)O)C(=O)N[C@@H](C(C)C)C(=O)N(C)[C@@H](Cc2ccccc2)C(=O)N[C@@H](CCCCN)C(=O)N2CCC[C@@H]2C(=O)N[C@@H](Cc2c[nH]c3ccccc23)C(=O)N[C@@H](Cc2ccc(O)cc2)C(=O)N[C@@H](CC(C)C)C(=O)N[C@H](C(=O)NCC(N)=O)CSCC(=O)N[C@@H](Cc2ccccc2)C(=O)N(C)[C@@H](Cc2ccccc2)C(=O)N1C [Example 3187] (HELM PEPTIDE1{[O=C(C[*:3])[*:2]].F.[meF].[CCCC[C@@H](C(=O)[*:2])N(C)[*:1]].[dP].D.V.[meF].K.[dP].W.Y.L.C.G.[am]}$PEPTIDE1,PEPTIDE1,1:R3-14:R3$$$V2.0)
